In brackets after ≈: the same amount, converted by molar mass.
Columns and labels:
[1] = tested on: breast cancer cell line (MCF-7); set-up: method as in PMID 20627597; settings: cited from earlier work
HeLa = tested on: HeLa; set-up: method as in PMID 27159418; settings: cited from earlier work
[2] = tested on: human lung cancer cell (A549); test: MTT cytotoxicity assay, A549; type: cell-based; settings: for Selectivity Index A549: HFL-1 vs A549; for IC50: Homo sapiens, MTT, 24 h treatment, A549
Experimental: (§1) The American type culture collection (ATCC, USA) provided human lung cancer cell line (A549), cervical cancer cell line (HeLa), and human primary normal lung cells (HFL-1) for this investigation. In a water-jacketed cell culture incubator, all of these cell types were cultured according to conventional culture conditions at 37 °C with 5% CO2. These cells were cultured in appropriate cell culture media. A549 cells were grown in DMEM media with 2 mM glutamine, HeLa cells were grown in Eagle’s minimum essential medium (EMEM) as recommended, whereas HFL-1 cells were also grown in F-12K. Fetal bovine serum 10% (FBS) was added to the entire medium. At a rate of 8000 cells were seeded in triplicate in a single 96-well plate for the MTT technique of cell death investigation. […] After the treatment period was finished, the media was removed, and each well was gently washed three times with PBS to clear any remaining residue just before the experiment. […] The plates were incubated at 37 °C for 4 h after the MTT was added. We used DMSO to remove crystals after the incubation period was completed. A hybrid multi-mode plate reader (BioTek, USA) with a microplate reader was used to measure absorbance at 570 nm. The percentage inhibition was calculated using eq 1: [drawing 1] 1 where ODtreated is the mean optical density (OD) of the treated cells and ODcontrol is the OD of the vehicle control cells (negative control).
(§2) With all of the experimental drugs, we conducted the MTT assay three times. Prism8 software (GraphPad) was used to determine the IC50 values of the various drugs, which were then expressed as a drug concentration (μM).

A549 cells = test: Annexin V-FITC/PI flow cytometry apoptosis assay; type: cell-based, human; settings: 4 μM, 24 h, control 11.41%
Experimental: We used flow cytometry analysis on A549 and HeLa cells for the quantitative apoptosis assay. As previously stated, cells were cultivated at 1.0 × 10^5 cells/ml and plated in 24-well culture plates (Corning) for 24 h. Cells were cultured for further 24 h after being treated with 4 μm of target drugs 3a and 3h. For analysis, the medium was discarded and cells were washed briefly in PBS, and then, the trypsinization protocol was carried out. Furthermore, cells were suspended in PBS and stained with annexin in V-FITC/PI according to the supplier technique (Sigma, USA, catalogue number: APOAF-20TST). After adding the reagents, the cells were allowed to incubate for 30 min at room temperature before being analyzed in PBS. The analysis was conducted on a BD FACS Accuri (BD Biosciences, USA), and the results were analyzed using FlowJo software (BD Biosciences, USA).[42]

Ct-DNA [3] = test: Fluorescence emission titration; type: binding; settings: DNA 10 μM, compound 10–80 μM
Experimental: Drug interactions with Ct-DNA have been studied using fluorescence assays. The experiments were achieved by varying drug concentration from 10 to 80 μM while keeping the concentration of DNA (10 μM) constant. Before making emission observation, the synthesized compound was incubated for 3 min with mixing DNA, after which emission titration was collected in Tris-buffer (pH 7.4) excitation at wavelength 260 nm, and the quenching results were analyzed using the Stern–Volmer equation (eq 3): [drawing 3] 3 Slit width has been kept constant at 10 nm during emission and excitation. The titration experiments were repeated three times (n = 3) to ensure consistent results.[50]−[52]

[4] = DPPH radical scavenging antioxidant assay; settings: 1 h incubation in the dark
Experimental: The antioxidant activity of the 3a and 3h was determined using the DPPH ([…]) radical scavenging technique, as reported.[60],[73] In methanol, the DPPH radical has a purple color and has a strong absorption band with a maximum of 517 nm. Compound concentrations ranging from 1 to 4 μM were mixed with DPPH at a concentration of 10 μM. The mixtures were properly mixed and then incubated at room temperature for 1 h in the dark. The standard reference was ascorbic acid. As a control, DPPH in methanol was utilized. The % of DPPH radical scavenged was used to calculate the antioxidant activity of the compounds, which was calculated using eq 5: [drawing 5] 5 where Acontrol = DPPH absorbance; Asample = sample with DPPH absorbance.

[5] = tested on: human cervical cancer cell (HeLa); test: MTT cytotoxicity assay, HeLa; type: cell-based; settings: for Selectivity Index HeLa: HFL-1 vs HeLa; for IC50: Homo sapiens, MTT, 24 h treatment, HeLa
Experimental: as §1, §2

EB-DNA complex (Ct-DNA) = test: Ethidium bromide dye displacement assay; type: binding; settings: quenching of EB-DNA fluorescence
Source text: Competitive fluorescence binding experiments utilizing ethidium bromide, a standard intercalation indicator, were used to evaluate the degree of molecular binding interaction mechanism of an active drug with Ct-DNA. […] The observable changes in the EB–DNA adduct’s emission spectrum as a function of quencher addition are particularly valuable for researching compound–DNA interactions. Fluorescence measurements were done in Tris-buffer at a 515 nm excitation wavelength in the range of 530–700 nm. Slit widths for both emission and excitation were set at about 10 nm.[54],[69]

Ct-DNA [6] = test: Cyclic voltammetry; type: binding; settings: Tris-buffer, 100 mV s^–1, DNA 10–40 μM
Experimental: Using this experiment, a drug–DNA binding interaction has also been investigated. The solution’s pH was maintained before analysis, and the entire analytical equipment was built at 25 °C with a constant potential of 100 mV s^–1 scan rate and a voltage range of −1 to +1 V. The spectra of a test compound (60 μL) were recorded using a screen-printed electrode (SPE). These experiments were carried out in a 1:1 ferri/ferrocyanide solution ratio. Various concentrations of Ct-DNA (Tris-buffer) were used to further evaluate test compounds 3a and 3h. The working electrode is made of the test compound, whereas the counter and reference electrodes are made of gold-coated copper. Binding constants were obtained using eq 4: [drawing 4] 4 where I0 and I are the peak currents of compound and compound–DNA complexes, respectively.[56]

[7] = tested on: human primary normal lung cells (HFL-1); test: MTT cytotoxicity assay, HFL-1; type: cell-based; settings: HFL1, 24 h treatment
Experimental: as §1, §2

| IC50 DPPH radical scavenging [4] | SMILES | IC50 [1] | IC50 (HeLa) | Selectivity Index A549 [2] | IC50 [2] | cell death (sum of Q1+Q2+Q3) (A549 cells) | Stern–Volmer constant KSV (emission titration) (Ct-DNA [3]) | Selectivity Index HeLa [5] | IC50 [5] | Stern–Volmer constant KSV (EtBr displacement) (EB-DNA complex (Ct-DNA)) | binding constant K (cyclic voltammetry) (Ct-DNA [6]) | IC50 [7] |
| --- | --- | --- | --- | --- | --- | --- | --- | --- | --- | --- | --- | --- |
|  | COc1ccc(C2CC(c3ccc(C)c(C)c3)=NN2C(N)=S)cc1 (stereo not drawn) [Compound 1] | 0.08 µM |  |  |  |  |  |  |  |  |  |  |
|  | COc1cc(C2=NN(C(N)=O)C(c3cn(C)c4ccc(Br)cc34)C2)cc(OC)c1OC (stereo not drawn) [Compound 2] |  | 0.21 µM |  |  |  |  |  |  |  |  |  |
|  | COc1cccc(C2=NN(C(N)=O)C(c3cn(C)c4ccc(Br)cc34)C2)c1 (stereo not drawn) [Compound 3] |  | 0.25 µM |  |  |  |  |  |  |  |  |  |
| 0.132 ± 0.012 µg/mL (≈ 0.368 µM) | CN(C)c1ccc(C2CC(c3ccc(Cl)cc3)=NN2C(N)=S)cc1 (stereo not drawn) [Compound 3a] |  |  | 8.4 | 13.5 ± 0.17 µM | 25.86% | 5.80 × 10^3 M^–1 | 6.5 | 17.52 ± 0.09 µM | 1.84 × 10^4 M^–1 | 1.25 × 10^4 | 114.5 ± 0.01 µM |
|  | CN(C)c1ccc(C2CC(c3cccc(Br)c3)=NN2C(N)=S)cc1 (stereo not drawn) [Compound 3b] |  |  | 1.0 | 222.3 ± 0.09 µM |  |  | 1.5 | 150.1 ± 0.24 µM |  |  | 227.98 ± 0.04 µM |
|  | CN(C)c1ccc(C2CC(c3cccc([N+](=O)[O-])c3)=NN2C(N)=S)cc1 (stereo not drawn) [Compound 3c] |  |  | 1.1 | 163.9 ± 0.07 µM |  |  | 1.4 | 123.6 ± 0.2 µM |  |  | 185.3 ± 0.21 µM |
|  | CN(C)c1ccc(C2CC(c3ccccc3Cl)=NN2C(N)=S)cc1 (stereo not drawn) [Compound 3d] |  |  | 1.8 | 118.7 ± 0.08 µM |  |  | 14.46 | 15 ± 0.46 µM |  |  | 217.03 ± 0.02 µM |
|  | Cc1ccc(C2=NN(C(N)=S)C(c3ccc(N(C)C)cc3)C2)cc1 (stereo not drawn) [Compound 3e] |  |  |  | 37.07 ± 0.14 µM |  |  | 17.4 | 14.1 ± 0.4 µM |  |  | 244.64 ± 0.05 µM |
|  | CN(C)c1ccc(C2CC(c3ccc(Br)cc3)=NN2C(N)=S)cc1 (stereo not drawn) [Compound 3f] |  |  | 2.0 | 94.18 ± 0.11 µM |  |  | 1.1 | 168.8 ± 0.36 µM |  |  | 194.33 ± 0.01 µM |
|  | CN(C)c1ccc(C2CC(c3ccc(Cl)cc3)=NN2C(N)=O)cc1 (stereo not drawn) [Compound 3g] |  |  | 0.4 | 59.74 ± 0.18 µM |  |  | 0.03 | 890.3 ± 0.22 µM |  |  | 26.94 ± 0.08 µM |
| 0.215 ± 0.025 µg/mL (≈ 0.555 µM) | CN(C)c1ccc(C2CC(c3cccc(Br)c3)=NN2C(N)=O)cc1 (stereo not drawn) [Compound 3h] |  |  | 7.6 | 22.5 ± 0.25 µM | 20.60% | 4.28 × 10^3 M^–1 | 7.1 | 24.1 ± 0.86 µM | 1.69 × 10^4 M^–1 | 7.1 × 10^3 | 173 ± 10 µM |
|  | CN(C)c1ccc(C2CC(c3ccc([N+](=O)[O-])cc3)=NN2C(N)=O)cc1 (stereo not drawn) [Compound 3i] |  |  | 0.9 | 174.84 ± 0.05 µM |  |  | 2.0 | 80.7 ± 0.28 µM |  |  | 165.84 ± 0.03 µM |
|  | CN(C)c1ccc(C2CC(c3cccc4ccccc34)=NN2C(N)=S)cc1 (stereo not drawn) [Compound 3j] |  |  | 0.5 | 290.09 ± 0.14 µM |  |  | 0.8 | 194.2 ± 0.44 µM |  |  | 166.75 ± 0.03 µM |
|  | CN(C)c1ccc(C2CC(c3cccc4ccccc34)=NN2C(N)=O)cc1 (stereo not drawn) [Compound 3k] |  |  | 0.5 | 52.76 ± 0.28 µM |  |  | 0.2 | 96.46 ± 0.25 µM |  |  | 27.52 ± 0.06 µM |
|  | CCN(CC)c1ccc(C2CC(c3ccc(Br)cc3)=NN2C(N)=S)cc1 (stereo not drawn) [Compound 3l] |  |  | 4.2 | 43.93 ± 0.13 µM |  |  | 10.5 | 17.7 ± 0.42 µM |  |  | 185.45 ± 0.14 µM |
